Tests used:
Type in all cases: in vivo
[1] = system: larvae of the banded cucumber beetle (Diabrotica balteata); test: Diabrotica balteata spray test; details: 168 h, 100 g/ha (=32 μg/well), wheat seeds, after 7 days, read-out: efficacy (seedling growth)
How it was run: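 Wheat seeds germinated 1 day on agar were sprayed with compound in acetone/dimethylformamide with alkylarylpolyglycol ether emulsifier, diluted in emulsifier-containing water. Each unit then received 10-20 larvae, and % efficacy was scored after 7 days.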

[2] = system: fall armyworm larvae (Spodoptera frugiperda); test: Spodoptera frugiperda spray test (maize leaf sections); details: 168 h
How it was run: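 Maize leaf sections sprayed with compound in acetone/dimethylformamide, diluted in water with 1000 ppm alkylarylpolyglycol ether emulsifier. Dried sections infested with fall armyworm larvae. Mortality (%) scored after 7 days; 100% = all caterpillars killed.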

[3] = system: adult cat fleas (Ctenocephalides felis); test: Ctenocephalides felis in-vitro contact test, adult cat flea; details: 5 μg/cm^2 (=500 g/ha), after 48 hours
How it was run: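 Acetone solutions of compound were coated onto inner walls of glass tubes (900 ppm giving 5 μg/cm^2) and dried; 5-10 adult C. felis were then held 48 h at room temperature. Efficacy = % fleas dead or moribund, judged by inability to escape a 45-50° C heating plate within 5 min.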

[4] = system: green peach aphid (Myzus persicae); test: Myzus persicae oral test; details: 120 h
How it was run: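 Compound was dissolved in acetone, diluted with water and mixed into IPL41 insect medium with sugar under a parafilm seal. A mixed aphid population fed through the parafilm, and mortality (%) was scored after 5 days.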

[5] = system: adult brown dog ticks (Rhipicephalus sanguineus); test: Rhipicephalus sanguineus in-vitro contact test with adult brown dog ticks; details: 5 μg/cm^2 (=500 g/ha), after 48 hours, read-out: efficacy (ticks dead or moribund)
How it was run: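 Efficacy (%) reflects the fraction of adult ticks dead or moribund after 48 h of contact with a dried acetone film on tube walls at 5 μg/cm^2 (from 900 ppm). Moribund status was assessed by inability to climb away from heat at 45-50° C.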

[6] = system: adult flies Musca domestica strain WHO-N; test: Musca domestica test (MUSCDO surface treatment & contact assay); details: 24 hours after contact, read-out: efficacy (mortality); for mortality at 4 mg/m2: surface concentration 4 mg/m^2, 30 min exposure; for mortality at 20 mg/m2: surface concentration 20 mg/m^2, 30 min exposure
How it was run: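 Compound in acetone at 2 mg/ml with 2000 ppm RME pipetted onto glazed tile; after acetone evaporates, adult WHO-N flies exposed on dried surface for 30 min. Percent mortality scored 24 h after contact.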

[7] = system: adult engorged female ticks (Rhipicephalus microplus); test: Rhipicephalus (Boophilus) microplus injection test; details: 168 h, egg deposition after 7 days, read-out: efficacy (infertile eggs); for pest or weed control at 0.004 mg: 4 μg/animal
How it was run: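 Five adult engorged female ticks each injected into the abdomen with 1 μL of compound in DMSO, then kept in a climate chamber. Fertile egg deposition assessed after 7 days, with unclear eggs held until hatching around 42 days; efficacy 100% means all eggs infertile, 0% all fertile.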

[8] = system: adult unfed cat fleas (Ctenocephalides felis); test: Ctenocephalides felis oral test; details: 48 h
How it was run: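 About 20 adult unfed fleas fed through parafilm on cattle blood containing compound (DMSO stock diluted in blood), blood held at 37 °C and fleas at room temperature. Mortality (%) scored after 2 days.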

In the case of `C[C@H](NC(=O)c1cc(C(F)(F)F)cc(C(F)(F)F)c1)c1ncnn1-c1ncc(C#N)s1` [I-2], the pest or weed control at 32 µg/disc, 100 g/ha [1] is reported as 100%, the mortality at 100 g/ha [2] is reported as 100% and the “efficacy (fleas dead or moribund)” value [3] is reported as 80%. For the same compound, the mortality at 4 ppm [4] was 100%, the pest or weed control at 5 µg/cm2, 500 g/ha [5] was 100% and the mortality at 4 mg/m2 [6] was 90 to 100%. It also gave a mortality at 20 mg/m2 [6] of 80 to 100%, a pest or weed control at 0.004 mg [7] of 100% and a pest or weed control at 0.02 mg ([7]; 20 μg/animal) of 100%. It also gave a mortality at 100 ppm [8] of 100%.
In the case of `Cc1nc([C@H](C)NC(=O)c2cc(C(F)(F)F)cc(C(F)(F)F)c2)n(-c2ncc(C(=O)N(C)CC3CC3)s2)n1` [I-4], the pest or weed control at 32 µg/disc, 100 g/ha [1] is reported as 100%, the mortality at 100 g/ha [2] is reported as 100% and the “efficacy (fleas dead or moribund)” value [3] is reported as 100%. It also gave a mortality at 4 ppm [4] of 100%, a pest or weed control at 5 µg/cm2, 500 g/ha [5] of 100% and a mortality at 20 mg/m2 [6] of 80 to 100%. For the same compound, the pest or weed control at 0.004 mg [7] was 100% and the mortality at 100 ppm [8] was 100%.
For `Cc1nc([C@H](C)NC(=O)c2cc(C(F)(F)F)cc(C(F)(F)F)c2)n(-c2ncc(C(=O)N(C)C)s2)n1` [I-5, 2-(5-{(1S)-1-[3,5-bis(trifluoromethyl)benzamido]ethyl}-3-methyl-1H-1,2,4-triazol-1-yl)-N,N-dimethyl-1,3-thiazole-5-carboxamide], the pest or weed control at 32 µg/disc, 100 g/ha [1] was 100%, the mortality at 100 g/ha [2] was 100% and the “efficacy (fleas dead or moribund)” value [3] was 100%. For the same compound, the mortality at 4 ppm [4] was 100%, the pest or weed control at 5 µg/cm2, 500 g/ha [5] was 100% and the mortality at 4 mg/m2 [6] was 90 to 100%. For the same compound, the pest or weed control at 0.004 mg [7] was 100% and the mortality at 100 ppm [8] was 100%.
`CCN(C)C(=O)c1cnc(-n2nc(C)nc2[C@H](C)NC(=O)c2cc(C(F)(F)F)cc(C(F)(F)F)c2)s1` [I-6] was tested, and the pest or weed control at 32 µg/disc, 100 g/ha [1] was 100%, the mortality at 100 g/ha [2] was 100% and the “efficacy (fleas dead or moribund)” value [3] was 100%. It also gave a mortality at 4 ppm [4] of 100%, a pest or weed control at 5 µg/cm2, 500 g/ha [5] of 100% and a mortality at 4 mg/m2 [6] of 90 to 100%. For the same compound, the mortality at 20 mg/m2 [6] was 80 to 100%, the pest or weed control at 0.004 mg [7] was 100% and the mortality at 100 ppm [8] was 100%.
In the case of `Cc1nc([C@H](C)NC(=O)c2cc(C(F)(F)F)cc(C(F)(F)F)c2)n(-c2ncc(C(=O)N(C)CC#N)s2)n1` [I-9], the pest or weed control at 32 µg/disc, 100 g/ha [1] is reported as 100%, the mortality at 100 g/ha [2] is reported as 100% and the “efficacy (fleas dead or moribund)” value [3] is reported as 100%. It also gave a mortality at 4 ppm [4] of 100%, a pest or weed control at 5 µg/cm2, 500 g/ha [5] of 100% and a mortality at 20 mg/m2 [6] of 80 to 100%. For the same compound, the pest or weed control at 0.004 mg [7] was 100% and the mortality at 100 ppm [8] was 100%.
In the case of `Cc1nc([C@H](C)NC(=O)c2cc(C(F)(F)F)cc(C(F)(F)F)c2)n(-c2ncc(C(N)=O)s2)n1` [I-21, 2-(5-{(1S)-1-[3,5-bis(trifluoromethyl)benzamido]ethyl}-3-methyl-1H-1,2,4-triazol-1-yl)-1,3-thiazole-5-carboxamide], the pest or weed control at 32 µg/disc, 100 g/ha [1] is reported as 100%, the mortality at 100 g/ha [2] is reported as 100% and the “efficacy (fleas dead or moribund)” value [3] is reported as 100%. For the same compound, the mortality at 4 ppm [4] was 100%, the pest or weed control at 5 µg/cm2, 500 g/ha [5] was 100% and the mortality at 4 mg/m2 [6] was 90 to 100%. It also gave a mortality at 20 mg/m2 [6] of 80 to 100%, a pest or weed control at 0.004 mg [7] of 100% and a mortality at 100 ppm [8] of 100%.

Reference: patent publication US20230065953A1, “NOVEL HETEROARYL-TRIAZOLE COMPOUNDS AS PESTICIDES” (Bayer Aktiengesellschaft, priority 2019, published 2023)
